{
  "source": "patent US20190291112A1",
  "about": "“DROPLET MICROFLUIDICS FOR DRUG SCREENING” (University of Macau, priority 2018, published 2019)",
  "key": {"[1]": {"test_system": "NAS1608 human primary nasopharyngeal tumor sample", "assay": "cells", "format": "cell-based", "details": "for viability at 1 µM / viability at 10 µM / cytotoxicity at 10 µM: Homo sapiens; for viability at 1 µM / viability at 10 µM: read-out: mean cell viability; for droplet cell viability range: 17 h post-treatment; for range of droplet cell viability: before treatment (0 h); for mean cell death: normalized to DMSO control, calibrated by 0 h data"}, "MDA-MB-231 cells [2]": {"test_system": "MDA-MB-231 cells", "assay": "On chip drug screening assay (ethidium homodimer 1 staining)", "format": "cell-based, human", "protocol": "(§1) Jurkat E6.1 cells (ATCC® TIB-152™) and MDA-MB-231 cells (ATCC® HTB-26™) were used as models for suspended and adherent cancer cell lines respectively. Jurkat cell line was derived from human acute T cell leukemia, whereas MDA-MB-231 cell line was derived from human metastatic breast adenocarcinoma.\nOn chip drug screening was performed using the PDMS-based microfluidic chip as described above. A 500 μL glass syringe (Hamilton, USA) and polytetrafluoroethylene (PTFE) tubings with appropriate bore (Cole Parmer, USA) was used to connect between the syringe pump (Harvard Apparatus PHD Ultra Syringe Pump, USA) and the microfluidic chip. Fluorinert® FC-40 (Sigma-Aldrich, USA) supplemented with 2% 008-Fluorosurfactant (Ran Biotechnologies, USA) was used as oil phase; relevant cell culture medium, supplemented with 1% (w/v) methyl cellulose (Sigma-Aldrich, USA) was used as aqueous phase. Cells treated with 0.1% dimethyl sulfoxide (DMSO) were used as negative control.\nBriefly, cells at final concentrations of 1-2×10^6 cells per mL were aliquoted in 0.2 mL PCR tubes, then mixed with corresponding drugs and 2 μM ethidium homodimer 1 (Life Technologies, USA) by manual pipetting. Next, […], cell-drug mixtures were loaded into the tubing, consecutively segregated by oil phase at withdrawal rate of 200 μL/h by syringe pump. After loading all mixtures, the tubing was inserted into the microfluidic chip, which was back-flushed with oil phase at 500 μL/h by syringe pump. After that, the mixtures were infused at 25 μL/h by syringe pump. Finally, the inlet and outlet tubings were cut and sealed with Vaseline (Vaseline, USA). The chips were placed in 150 mm cell culture dish (Coming, USA) containing wet paper towels, and transferred to humidified incubator at 37° C. supplemented with 5% CO2 for 16-24 h incubation. Brightfield and red fluorescence images (Ex. 531/40 nm, Em. 593/40 nm) were taken under 10× magnification (Life Technologies EVOS FL Imaging System, USA).\nFor on chip assays, brightfield and red fluorescence images were initially processed by ImageJ v.1.50i, Cell counting was either performed manually or by Matlab v.R201.5a based on the workflow shown on FIG. 5B. Briefly, cells from brightfield and red fluorescence images were detected separately using a heuristic Hough Transformation model based on threshold implementation on circular diameter and pixel intensity. Next, each recognized cell was dissected into 10×10 pixels matrix for analysis of its pixel intensity. Subsequently, two layers of multi-radii analysis of pixel intensity around the center of each matrix distinguished signal from noise. Afterwards, cells were distinguished from noise based on the brightfield image, whereas cell viability was determined by signal intensity of corresponding red fluorescence image. Finally, positional information (defined by row: x, and column: y) and size (defined by radius: r) of discrete image matrix was used to classify each cell as “live” or “dead”. The total number of cells in each image corresponding to each droplet formation well on chip was summarized as a table in CSV format for calculation of cell viability. […]\nFor on chip assays, the number of cells was counted in brightfield and red fluorescence images from each well respectively. Cell viability was calculated as follows: […]\nwhere Total cells and Dead cells referred to the total number of cells counted from brightfield and red fluorescence images, respectively. […]"}, "Jurkat cells [3]": {"test_system": "Jurkat cells", "assay": "On chip drug screening assay (ethidium homodimer 1 staining)", "format": "cell-based, human", "details": "16-24 h", "protocol": "Jurkat E6.1 cells (ATCC® TIB-152™) and MDA-MB-231 cells (ATCC® HTB-26™) were used as models for suspended and adherent cancer cell lines respectively. Jurkat cell line was derived from human acute T cell leukemia, whereas MDA-MB-231 cell line was derived from human metastatic breast adenocarcinoma. On chip drug screening was performed using the PDMS-based microfluidic chip as described above. A 500 μL glass syringe (Hamilton, USA) and polytetrafluoroethylene (PTFE) tubings with appropriate bore (Cole Parmer, USA) was used to connect between the syringe pump (Harvard Apparatus PHD Ultra Syringe Pump, USA) and the microfluidic chip. Fluorinert® FC-40 (Sigma-Aldrich, USA) supplemented with 2% 008-Fluorosurfactant (Ran Biotechnologies, USA) was used as oil phase; relevant cell culture medium, supplemented with 1% (w/v) methyl cellulose (Sigma-Aldrich, USA) was used as aqueous phase. Cells treated with 0.1% dimethyl sulfoxide (DMSO) were used as negative control. […] Next, […], cell-drug mixtures were loaded into the tubing, consecutively segregated by oil phase at withdrawal rate of 200 μL/h by syringe pump. After loading all mixtures, the tubing was inserted into the microfluidic chip, which was back-flushed with oil phase at 500 μL/h by syringe pump. After that, the mixtures were infused at 25 μL/h by syringe pump. Finally, the inlet and outlet tubings were cut and sealed with Vaseline (Vaseline, USA). […] Brightfield and red fluorescence images (Ex. 531/40 nm, Em. 593/40 nm) were taken under 10× magnification (Life Technologies EVOS FL Imaging System, USA). […] For on chip assays, the number of cells was counted in brightfield and red fluorescence images from each well respectively."}, "Jurkat cells [4]": {"test_system": "Jurkat cells", "assay": "96-well microtiter plate drug screening assay (Alamar Blue)", "format": "cell-based, human", "details": "96-well plate, 16-24 h", "protocol": "as §1\n(§2) Microtiter plate drug screening assays were carried out on 96-well clear round flat-bottom plates (Corning, USA) or 384-well white square flat-bottom plates (Corning, USA).\n(§3) First, 5.0×10^5 or 1.0×10^5 cells were seeded per well for 96-well and 384-well plates respectively. Drugs were diluted with Dulbecco's phosphate-buffered saline (DPBS) (Life Technologies, USA), and subsequently added to achieve final drug concentrations as indicated on the graphs. Afterwards, the plates were transferred to humidified incubator at 37° C. supplemented with 5% CO2 for 16-24 h incubation. Finally, Alamar Blue assay was used to measure cell viability. Fluorescence intensity (Ex. 560 nm, Em. 590 nm) using auto-cutoff was measured from bottom on plate reader (Molecular Devices SpectraMax MS Plate Reader, USA). Cells treated with 0.1% dimethyl sulfoxide (DMSO) were used as negative control, while no cells were added to blank control. All experiments were performed in triplicate for 96-well plates and in quadruplicates for 384-well relates.\n(§4) For microliter plate assays, average relative fluorescence signal measured by plate reader from 6 reads of each well was used as raw data point. Cell viability was calculated as follows: […]\n(§5) where Sample represented raw data points of each sample well, whereas DMSO control and Blank represented average raw data points of all DMSO control and Blank wells, respectively."}, "MDA-MB-231 cells [5]": {"test_system": "MDA-MB-231 cells", "assay": "96-well microtiter plate drug screening assay (Alamar Blue)", "format": "cell-based, human", "details": "96-well plate", "protocol": "as §1, §2, §3, §4, §5"}},
  "note": "Read-outs that look alike come from different tables or passages of the source.",
  "data": [
    {"smiles": "CC(C)C[C@H](NC(=O)[C@H](Cc1ccccc1)NC(=O)c1cnccn1)B(O)O", "note": "[bortezomib]", "values": [
      {"measurement": "viability at 1 µM", "setting": "[1]; 0 h", "value": 72.9, "unit": "%"},
      {"measurement": "viability at 10 µM", "setting": "[1]; 0 h", "value": 78.8, "unit": "%"},
      {"measurement": "cytotoxicity at 10 µM", "setting": "[1]; 17 h, read-out: droplet cell viability reduction in the majority of droplets", "value": "35 to 55", "unit": "%"},
      {"measurement": "cytotoxicity at 10 µM", "setting": "[1]; 17 h, read-out: maximum reduction of droplet cell viability", "value": 62.9, "unit": "%"},
      {"measurement": "viability at 1 µM", "setting": "[1]; 17 h", "value": 42.5, "unit": "%"},
      {"measurement": "viability at 10 µM", "setting": "[1]; 17 h", "value": 34.6, "unit": "%"},
      {"measurement": "cytotoxicity at 10 µM", "setting": "[1]; 17 h, read-out: minimum reduction of droplet cell viability", "value": 29.3, "unit": "%"},
      {"measurement": "share of total sample cell population in droplets with viability reduction of over 30%", "setting": "[1]; NAS1608, 10 μM bortezomib, 17 h", "value": 92.4, "unit": "%"},
      {"measurement": "droplet cell viability range", "setting": "[1]; NAS1608, 10 μM bortezomib", "value": 49.7, "unit": "%"},
      {"measurement": "range of droplet cell viability", "setting": "[1]; NAS1608, 10 μM bortezomib", "value": 29.0, "unit": "%"},
      {"measurement": "mean cell death", "setting": "[1]; NAS1608, 10 μM, 17 h", "value": 51.7, "unit": "%"},
      {"measurement": "dose dependence of normalized cell viability", "setting": "[1]; NAS1608, 16-24 h, normalized to mock treatment", "value": "dose-dependent reduction of cell viability"},
      {"measurement": "IC50", "setting": "MDA-MB-231 cells [2]; Homo sapiens", "value": "> 10", "unit": "µM"},
      {"measurement": "IC50", "setting": "Jurkat cells [3]; Homo sapiens", "value": 22.1, "unit": "µM"},
      {"measurement": "IC50", "setting": "Jurkat cells [4]; Homo sapiens", "value": 22.1, "unit": "µM"},
      {"measurement": "IC50", "setting": "MDA-MB-231 cells [5]; Homo sapiens", "value": "> 10", "unit": "µM"}
    ]},
    {"smiles": "N.N.[Cl][Pt][Cl]", "note": "[cisplatin]", "values": [
      {"measurement": "droplet cell viability range", "setting": "[1]; NAS1608, 100 μM cisplatin", "value": 56.5, "unit": "%"},
      {"measurement": "range of droplet cell viability", "setting": "[1]; NAS1608, 100 μM cisplatin", "value": 31.1, "unit": "%"},
      {"measurement": "mean cell death", "setting": "[1]; NAS1608, 100 μM, 17 h", "value": 21.0, "unit": "%"},
      {"measurement": "IC50", "setting": "MDA-MB-231 cells [2]", "value": 4.2, "unit": "µM"},
      {"measurement": "IC50", "setting": "Jurkat cells [3]", "value": 39, "unit": "µM"},
      {"measurement": "IC50", "setting": "Jurkat cells [4]", "value": 39, "unit": "µM"},
      {"measurement": "IC50", "setting": "MDA-MB-231 cells [5]", "value": "> 50", "unit": "µM"}
    ]}
  ]
}
